# In US20250340538A1, “IMIDAZOLONE DERIVATIVES AS INHIBITORS OF PROTEIN KINASES IN PARTICULAR DYRK1A, CLK1 AND/OR CLK4” (PERHA PHARMACEUTICALS, priority 2021, published 2025):
# Experiments:
# CLK2 = biological target: T1, CLK2 (Homo sapiens, UniProt P49760); assay: Radiometric protein kinase assay (33PanQinase Activity Assay), CLK2; format: biochemical; conditions: read-out: IC50 on CLK2 (most potent CLK2 inhibitors)
# T1 construct: GST-fusion or His-tag (not specified per kinase); purchased ProQinase GmbH; host or cells: Sf9 insect cells or E. coli (not specified per kinase)
# T1 sequence (P49760 whole entry, the tested form may be a part): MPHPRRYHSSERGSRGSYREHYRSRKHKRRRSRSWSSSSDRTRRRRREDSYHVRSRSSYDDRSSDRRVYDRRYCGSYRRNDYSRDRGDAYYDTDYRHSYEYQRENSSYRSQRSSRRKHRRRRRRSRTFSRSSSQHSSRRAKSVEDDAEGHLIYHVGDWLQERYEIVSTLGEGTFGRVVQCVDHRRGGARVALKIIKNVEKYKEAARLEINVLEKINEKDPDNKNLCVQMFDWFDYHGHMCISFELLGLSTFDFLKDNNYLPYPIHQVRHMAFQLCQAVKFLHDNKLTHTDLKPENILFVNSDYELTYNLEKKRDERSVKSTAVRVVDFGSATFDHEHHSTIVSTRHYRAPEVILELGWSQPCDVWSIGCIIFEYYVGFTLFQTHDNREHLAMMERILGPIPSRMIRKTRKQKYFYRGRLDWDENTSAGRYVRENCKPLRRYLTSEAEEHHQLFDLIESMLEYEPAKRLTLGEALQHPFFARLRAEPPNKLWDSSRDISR
# Summary of the method: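 IC50 values were derived from 10-point dose-response curves (10 μM to 30 nM). Incubation: 60 min, 30 °C, 1% DMSO, radiolabelled ATP.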
# DYRK4 = biological target: T2, DYRK4 (Homo sapiens, UniProt Q9NR20); assay: Radiometric protein kinase assay (33PanQinase Activity Assay), DYRK4; format: biochemical; conditions: read-out: IC50 on DYRK4 (most potent DYRK4 inhibitors)
# T2 construct: GST-fusion or His-tag (not specified per kinase); purchased ProQinase GmbH; host or cells: Sf9 insect cells or E. coli (not specified per kinase)
# T2 sequence (Q9NR20 1-520): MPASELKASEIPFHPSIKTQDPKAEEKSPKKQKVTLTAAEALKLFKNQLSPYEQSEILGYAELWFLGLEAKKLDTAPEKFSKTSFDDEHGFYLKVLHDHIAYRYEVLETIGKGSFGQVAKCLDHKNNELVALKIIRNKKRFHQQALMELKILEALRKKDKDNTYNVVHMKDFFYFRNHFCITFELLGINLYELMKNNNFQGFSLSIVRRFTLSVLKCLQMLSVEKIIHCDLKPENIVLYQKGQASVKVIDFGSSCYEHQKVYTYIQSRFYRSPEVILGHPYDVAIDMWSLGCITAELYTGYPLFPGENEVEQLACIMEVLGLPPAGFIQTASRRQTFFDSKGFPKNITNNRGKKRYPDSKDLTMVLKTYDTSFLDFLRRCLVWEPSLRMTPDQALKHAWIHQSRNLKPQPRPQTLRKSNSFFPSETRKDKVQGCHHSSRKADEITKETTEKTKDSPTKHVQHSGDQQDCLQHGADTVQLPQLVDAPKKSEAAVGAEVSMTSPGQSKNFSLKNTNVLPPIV
# Description: Assays were performed by ProQinase GmbH (Engesserstr. 4, D-79108 Freiburg, Germany. www.proqinase.com). The IC50 profile of all compounds was determined using 12 protein kinases (CDK2/cyclin E, CK1ε, CLK1, 2, 3, 4, DYRK1A, 1B, 2, 3, 4, GSK3β).
# The compounds were provided as […] in 100% DMSO. Prior to testing, the 1 μM stock solutions were subjected to a serial, semi-logarithmic dilution using 100% DMSO as a solvent. […] In the process, 90 μl H2O were added to each well of each compound dilution plate. To minimize potential precipitation, the H2O was added to each plate only a few minutes before the transfer of the compound solutions into the assay plates. The plate was shaken thoroughly, resulting in a compound dilution plate/10% DMSO.
# For the assays (see below), 5 μL solution from each well of the compound dilution plates/10% DMSO were transferred into the assay plates. The final volume of the assay was 50 μL. All compounds were tested at 10 final assay concentrations in the range from 10 μM to 30 nM. The final DMSO concentration in the reaction cocktails was 1% in all cases. […]
# The reaction cocktails were incubated at 30° C. for 60 minutes. […] Incorporation of ^33Pi was determined with a microplate scintillation counter (Microbeta, Wallac). The IC50 values for all compounds were calculated from the dose response curves […]
structure (smiles),measurement,setting,value
"O=C1NC(NC23CC4CC(CC(O)(C4)C2)C3)=N/C1=C\c1ccc2ncccc2c1 [Compound 50, (4Z)-2-[(3-hydroxy-1-adamantyl)amino]-4-(6-quinolylmethylene)-1H-imidazol-5-one]",IC50,CLK2,≤ 100 nM
same,IC50,DYRK4,≤ 300 nM
